Source: PMC3282623, “High-pressure-induced water penetration into 3-isopropylmalate dehydrogenase” (Acta Crystallographica Section D: Biological Crystallography, 2012)

Target: T1, SoIPMDH (3-isopropylmalate dehydrogenase from Shewanella oneidensis MR-1) (Shewanella oneidensis, UniProt Q8E9N3)
T1 construct: gene leuB; N-terminally His6-tagged (pQE-80L, BamHI/HindIII), expressed in E. coli BL21-CodonPlus(DE3)-RIL; tag removal not mentioned; homodimer
Test: X-ray crystallography of the complex
Assay type: binding
Conditions: active site, closed dimer; calcium in active site; 10 mM IPM, 10 mM MgCl2, 200 mM calcium acetate, pH 7.0, room temperature, 0.1 MPa (also 160-650 MPa: 3vl2, 3vl3, 3vl4, 3vl6, 3vl7)

T1 sequence (Q8E9N3 2-364): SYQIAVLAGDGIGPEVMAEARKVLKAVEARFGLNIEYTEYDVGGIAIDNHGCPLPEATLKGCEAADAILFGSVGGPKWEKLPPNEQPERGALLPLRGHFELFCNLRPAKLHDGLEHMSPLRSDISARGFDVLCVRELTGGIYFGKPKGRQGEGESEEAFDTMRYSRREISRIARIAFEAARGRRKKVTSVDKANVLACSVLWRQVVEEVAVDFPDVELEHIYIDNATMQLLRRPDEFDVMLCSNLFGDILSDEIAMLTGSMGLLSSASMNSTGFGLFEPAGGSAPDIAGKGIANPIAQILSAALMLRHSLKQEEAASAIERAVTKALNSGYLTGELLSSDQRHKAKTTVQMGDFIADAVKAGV

CC(C)[C@H](C(=O)O)[C@@H](O)C(=O)O [3-isopropylmalate]
X-ray crystallography of the complex: the SoIPMDH dimer was crystallized in complex with its substrate, the IPM molecule
